Measured values reported in PubChem BioAssay AID588449 (Broad Institute, 2011).
Calls of active or inactive are those of the source.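 How the source made its calls: active means inhibitors whose fitted AC50 is no more than ten times their highest valid tested dose; inconclusive means flat fit with 30 to 70% inhibition, or poor fit; inactive means the rest.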

Biological target: Dual specificity tyrosine-phosphorylation-regulated kinase 1A (Rattus norvegicus) (UniProt Q63470)
Test: inhibition of rat Dyrk1A phosphotransfer – biochemical, cherry-pick, plate reader, 2124-03, dose response (AID 588449)
Details: recombinant Dyrk1A, ADP-Glo luminescence, NFATc1 peptide

AC50	SMILES
0.905 µM	Cc1ccsc1CN(C)c1ncnc2ccc(-c3ccc(CO)o3)cc12
< 0.0056 µM	CN(Cc1nccs1)c1ncnc2ccc(-c3ccc4c(c3)OCO4)cc12
0.00672 µM	c1nc(NCC2CCCOC2)c2cc(-c3ccc4c(c3)OCO4)ccc2n1 (stereo not given)
11.3 µM	Clc1ccc(CNc2cc(-c3ccc4c(c3)OCO4)ncn2)cc1
0.00838 µM	Brc1cc(Br)cc(CNc2nccc(-c3ccc4c(c3)OCO4)n2)c1
1.06 µM	Clc1cc(Cl)cc(CNc2ncncc2-c2ccc3c(c2)OCO3)c1
0.114 µM	Clc1ccc(CNc2nccc(-c3ccc4[nH]ncc4c3)n2)cc1Cl
0.0208 µM	Cc1nc(CN(C)c2ncnc3ccc(-c4ccc5c(c4)OCO5)cc23)cs1
0.326 µM	c1csc(CNc2ncnc3ccc(-c4ccoc4)cc23)c1
2.56 µM	Cc1ccc(CNc2ncnc3ccc(-c4ccoc4C)cc23)o1
0.0365 µM	CCCNc1ncnc2ccc(-c3ccc4c(c3)OCO4)cc12
0.168 µM	Cc1nc(CNc2ncnc3ccc(-c4ccc5c(c4)OCO5)cc23)cs1
0.711 µM	c1cncc(CNc2ccnc(-c3ccc4[nH]ncc4c3)n2)c1
> 12 µM (inactive)	CS(=O)(=O)CCNCc1ccc(-c2ccc3ncnc(Nc4ccc(OCc5cccc(F)c5)c(Cl)c4)c3c2)o1
0.0216 µM	Clc1ccc(CNc2nccc(-c3ccc4cn[nH]c4c3)n2)cc1Cl
3.16 µM	Clc1ccccc1-c1ccc2ncnc(NCc3ccc4c(c3)OCO4)c2c1
2.85 µM	O=[N+]([O-])c1cc(Nc2nccc(-c3ccc4c(c3)OCO4)n2)cc(C(F)(F)F)c1
0.0843 µM	Clc1ccc(CNc2nccc(-c3ccc4c(c3)OCO4)n2)cc1Cl
0.121 µM	Cc1occc1CNc1ncnc2ccc(-c3ccc4c(c3)OCO4)cc12
0.0211 µM	Cc1noc(CN(C)c2ncnc3ccc(-c4ccc5c(c4)OCO5)cc23)n1
< 0.0056 µM	COc1ccc(-c2nccc(NCc3ccc(C)cc3)n2)cc1
< 0.0056 µM	FC(F)(F)c1cccc(Nc2nccc(-c3ccc4c(c3)OCO4)n2)c1
< 0.0056 µM	c1nc(NCC2CCCO2)c2cc(-c3ccc4c(c3)OCO4)ccc2n1 (stereo not given)
0.109 µM	Cc1c(-c2ccnc(NCc3ccc(Cl)cc3)n2)sc(=O)n1C
0.0609 µM	Cc1ccsc1CN(C)c1ncnc2ccc(-c3ccoc3)cc12
0.0146 µM	c1nc(NCC2CCCC2)c2cc(-c3ccc4c(c3)OCO4)ccc2n1

AC50	SMILES
0.907 µM	Cc1nc(CNc2ncnc3ccc(-c4ccoc4)cc23)cs1
0.209 µM	Brc1ccc(CNc2nccc(-c3ccc4c(c3)OCO4)n2)cc1Br
0.0748 µM	c1coc(CCNc2ncnc3ccc(-c4ccc5c(c4)OCO5)cc23)c1
9.67 µM	Clc1ccc(CNc2ncncc2-c2ccc3c(c2)OCO3)cc1
0.048 µM	c1cncc(CNc2nccc(-c3ccc4c(c3)OCO4)n2)c1
0.018 µM	CCN(Cc1cccs1)c1ncnc2ccc(-c3ccc4c(c3)OCO4)cc12
0.486 µM	CCOC(=O)c1ccc(-c2ccc3ncnc(N(C)Cc4sccc4C)c3c2)o1
0.217 µM	c1cncc(CNc2nccc(-c3ccc4cn[nH]c4c3)n2)c1
< 0.0056 µM	c1csc(CCNc2ncnc3ccc(-c4ccc5c(c4)OCO5)cc23)c1
3.54 µM	c1cncc(CNc2ccnc(-c3ccc4cn[nH]c4c3)n2)c1
0.0198 µM	Clc1ccc(CNc2nccc(-c3ccc4c(c3)OCCO4)n2)cc1Cl
5.46 µM	CN(C)c1ccc(-c2nccc(NCc3cccs3)n2)cc1
0.0625 µM	Cc1ccc(CNc2ncnc3ccc(-c4ccc5c(c4)OCO5)cc23)o1
0.0191 µM	Clc1ccc(CNc2ccnc(-c3ccc4[nH]ncc4c3)n2)cc1Cl
1.97 µM	Cc1csc(CN(C)c2ncnc3ccc(-c4ccc5c(c4)OCO5)cc23)n1
0.41 µM	Cc1c(-c2ccnc(NCc3cccnc3)n2)sc(=O)n1C
0.228 µM	Clc1ccc(Nc2nccc(-c3ccc4c(c3)OCO4)n2)cc1
0.34 µM	Clc1cc(Cl)cc(CNc2cc(-c3ccc4c(c3)OCO4)ncn2)c1
0.0104 µM	Cc1ccc(CN(C)c2ncnc3ccc(-c4ccc5c(c4)OCO5)cc23)o1
< 0.0056 µM	c1cc(-c2ccc3c(c2)OCO3)nc(Nc2ccc3c(c2)OCO3)n1
0.0492 µM	CN(Cc1cccs1)c1ncnc2ccc(-c3ccc4c(c3)OCO4)cc12
0.123 µM	c1cncc(CNc2nccc(-c3ccc4[nH]ncc4c3)n2)c1
0.0079 µM	Cc1ccsc1CNc1ncnc2ccc(-c3ccc4c(c3)OCO4)cc12
1.97 µM	c1cncc(CNc2cc(-c3ccc4c(c3)OCO4)ncn2)c1
0.0832 µM	Fc1c(-c2ccc3ncnc(NCc4cccs4)c3c2)ccc2c1OCO2

Same assay, conditions: recombinant Dyrk1A, ADP-Glo luminescence, NFATc1 peptide; at 12 µM (top of the series)

activity change, negative = inhibition	SMILES
inactive	Cc1cccc(CNc2ncnc3ccc(-c4cccc(Cl)c4)cc23)c1
inactive	Cn1ccc2cc(-c3ccc4ncnc(NCc5ccc6c(c5)OCO6)c4c3)ccc21
inactive	Cn1ccc2cc(-c3ccc4ncnc(NCc5cccc(F)c5)c4c3)ccc21
inactive	c1csc(CNc2ncnc3ccc(-c4ccc5c(c4)OCO5)cc23)n1
